Measurements reported in patent US7351695B2, “Topiramate salts and compositions comprising and methods of making and using the same” (Ortho-McNeil Pharmaceuticals, Inc., priority 2002, dated 2008).
Values joined by “and” are separate entries in the source; they are usually repeats but may differ in a detail not shown here. Equal entries are not always repeated. Where two headings read alike, the source gives them in different places.

What was measured:
[1] = Estimation of solubility: minimum solvent needed to dissolve a known amount; format: physicochemical; conditions: for Solubility (amount of solid in mL of solvent): sodium trihydrate
Method: The solubility of the topiramate sodium trihydrate prepared in this example in water, ethanol, methanol, and THF was estimated by determining the minimum amount of solvent necessary to dissolve a known amount of the compound. In general, a predetermined amount of the compound was placed in a small glass vial, and then solvent was added drop-wise at room temperature until no visible solid remained in the vial.

[2] = pH of an aqueous solution (pH meter); format: physicochemical; conditions: 400 mg/mL solution in distilled water
[3] = Dissolution curves in 0.01 N HCl; format: physicochemical; conditions: for state at the end of the dissolution experiment: nominal about 110 mM (37 mg/mL free acid concentration)
Description: FIG. 6 provides results of a comparison between the aqueous solubility of topiramate sodium trihydrate with that of topiramate. […] Independently, a set of dissolution curves were obtained in 0.01 N HCl (representative of a modestly acidic stomach), and these are shown in FIG. 7.

[4] = Physical stability by TGA and PXRD at preset temperature and relative humidity; format: physicochemical; conditions: for Physical stability result (solid form): 2 weeks
Method: A further study on physical stability of a sample from this example was conducted in glass vials at preset temperatures and controlled relative humidities. The humidities stored at room temperature were controlled using saturated salt solutions (see H. Nyquist, Pharm. Tech. 4(2):47-48 (1983)). At other temperatures, the oven configurations allowed humidity control. After 2 weeks, samples at various conditions were tested by TGA and PXRD to assess whether the crystalline topiramate sodium trihydrate remained intact or not. The data in Table 3 summarize findings after 2 weeks of incubation.

[5] = Chemical stability by HPLC analysis of stored samples; format: physicochemical
[6] = Oral pharmacokinetics in rats, capsules by gavage, plasma by LC/MS/MS; format: in vivo, male Sprague-Dawley rats; conditions: rat
[7] = cited from earlier work
[8] = in vivo; cited from earlier work
kindled seizures = conditions: rats; cited from earlier work
[9] = nominal concentration about 110 mM

With CC1(C)O[C@@H]2[C@@H](CO[C@@]3(COS(N)(=O)=O)OC(C)(C)O[C@@H]23)O1 [topiramate sodium trihydrate] as the molecule, how does the solubility ([1]; THF, room temperature (slight overestimate), read-out: Solubility (amount of solid in mL of solvent)) read?
The solubility was 44.2 mg/mL.

And the solubility ([1]; ethanol, room temperature, read-out: Solubility (amount of solid in mL of solvent))?
Its solubility is 376 mg/mL.

And the solubility ([1]; methanol, room temperature, single trials, read-out: Solubility (amount of solid in mL of solvent))?
The solubility was 1280 mg/mL.

And the “Solubility (amount of solid in mL of solvent)” value ([1]; methanol, room temperature, single trials)?
The value was 1600 mg/mL and 1530 mg/mL.

What about the solubility ([1]; methanol, room temperature, read-out: Average Solubility) of the same molecule?
Its solubility is 1470 mg/mL.

And the “aqueous solubility relative to topiramate” value ([1]; vs. literature value of […])?
The value was “over 100 times”.

What about the solubility ([1]; water, FIG. 6, read-out: aqueous solubility) of the same molecule?
Its solubility is 1300 mg/mL.

What about the solubility ([1]; water, room temperature, single trials, read-out: Solubility (amount of solid in mL of solvent)) of the same molecule?
The solubility was 1240 mg/mL.

And the “Solubility (amount of solid in mL of solvent)” value ([1]; water, room temperature, single trials)?
Its value is 1435 mg/mL.

And the solubility ([1]; water, room temperature, read-out: Average Solubility)?
The solubility was 1330 mg/mL.

What about the pH of solution [2] of the same molecule?
Its pH of solution is “about 11.2”.

What about the “solubility at the equilibrium condition relative to (1) and (3)” value [3] of the same molecule?
Its value is “increased solubility”.

And the “state at the end of the dissolution experiment” value ([3]; listed as topiramate sodium salt trihydrate, sodium trihydrate)?
The value was “not saturated”.

What about the “pH at the equilibrium condition” value [3, 9] of the same molecule?
The value was 9.5.

And the “Physical stability result (solid form)” value ([4]; 5 °C, ambient RH (refrigerated))?
Its value is “Trihydrate”.

What about the “Physical stability result (solid form)” value ([4]; 25 °C, 31% RH) of the same molecule?
The value was “Trihydrate”.

What about the “Physical stability result (solid form)” value ([4]; 25 °C, 75% RH) of the same molecule?
Its value is “Trihydrate”.

What about the “Physical stability result (solid form)” value ([4]; 25 °C, <5% RH) of the same molecule?
Its value is “Trihydrate & some amorphous”.

And the “Physical stability result (solid form)” value ([4]; 40 °C, 75% RH)?
Its value is “Trihydrate”.

And the “Physical stability result (solid form)” value ([4]; 40 °C, ambient RH (<20))?
The value was “Trihydrate”.

What about the “Physical stability result (solid form)” value ([4]; 60 °C, ambient RH (<10)) of the same molecule?
Its value is “Amorphous”.

What about the “Physical stability result (solid form)” value ([4]; 80 °C, ambient RH (<5)) of the same molecule?
Its value is “Amorphous”.

And the “temperature up to which the hydrate stays intact” value ([4]; by TGA)?
Its value is ≤ 40 °C.

What about the “chemical degradation by HPLC” value ([5]; 2 weeks at 25° C./<5% RH, 25° C./31% RH, 25° C./75% RH, 40° C./ambient RH, or 40° C./75% RH) of the same molecule?
Its value is “No chemical degradation”.

What about the “chemical degradation by HPLC” value ([5]; >12 weeks at 25° C./<5% RH, 25° C./31% RH, 25° C./75% RH, or 40° C./75% RH) of the same molecule?
Its value is “No chemical degradation”.

And the “chemical degradation by HPLC” value ([5]; stored at or above 60° C. for at least 2 weeks)?
The value was “Degradates were observed”.

And the Tmax ([6]; male, Sprague-Dawley, plasma, oral capsule, 30 mg/kg free topiramate equivalent, first time point, read-out: time of peak plasma concentration (tmax))?
The Tmax was 30 min.

And the “plasma profile, comparison in words” value ([6]; oral, 30 mg/kg, FIG. 10)?
The value was “comparable to an oral solution of TOPAMAX®”.

What does the source list for CC1(C)O[C@@H]2[C@@H](CO[C@@]3(COS(N)(=O)=O)OC(C)(C)O[C@@H]23)O1 [topiramate, 2,3:4,5-Di-O-isopropylidene-β-D-fructopyranose sulfamate]?
state at the end of the dissolution experiment ([3]; listed as topiramate crystal form): remained as suspensions; time at which dissolution was essentially complete [3, 9]: 5 min; solubility in acetone, chloroform, dimethylsulfoxide, and ethanol [7]: freely soluble; time to reach peak plasma levels [8]: about two; blocking kindled seizures (kindled seizures): effective in blocking kindled seizures
